According to US8802664B2 (Bioproject, priority 2010, dated 2014):

Experiments:
[1] = biological target: T1, human H4 receptor (Homo sapiens, UniProt Q9H3N8); assay: [3H]Histamine binding on membranes of CHO cells stably expressing human H4 receptor
T1 construct: expressed in transfected cells
How it was run: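 Nonspecific signal was taken as that remaining with 10 μM JNJ 7777120 present. Assays contained 20 μg CHO-derived hH4 membrane protein in Tris/HCl–EDTA buffer (pH 7.4) and were terminated on polyethyleneimine-soaked filters, with bound tritium quantified by scintillation.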

T1 sequence (Q9H3N8 whole entry): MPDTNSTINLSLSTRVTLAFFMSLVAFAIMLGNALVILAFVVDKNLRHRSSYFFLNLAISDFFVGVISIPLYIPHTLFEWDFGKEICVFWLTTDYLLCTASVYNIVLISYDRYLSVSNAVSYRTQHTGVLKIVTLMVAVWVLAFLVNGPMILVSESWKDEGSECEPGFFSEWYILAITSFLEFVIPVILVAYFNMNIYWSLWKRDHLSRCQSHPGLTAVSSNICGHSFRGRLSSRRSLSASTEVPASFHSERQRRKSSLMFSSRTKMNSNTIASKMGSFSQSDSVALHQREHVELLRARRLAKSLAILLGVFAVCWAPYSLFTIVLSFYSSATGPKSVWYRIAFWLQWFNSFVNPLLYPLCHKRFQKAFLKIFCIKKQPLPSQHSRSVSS

Q: Which results are given for `CN1CCC(OC(c2cccc(SCCCN)c2)c2nc3ccccc3[nH]2)CC1` (stereo not drawn) [Example 368, 3-{3-[(1H-benzimidazol-2-yl)(1-methylpiperidin-4-yloxy)methyl]phenylsulfanyl}propylamine]?
A: Ki or IC50 activity class [1]: < 30 nM; melting point: 126 °C

Q: For `CN1CCC(OC(c2ccccc2)c2nc3ccccc3[nH]2)C1` (stereo not drawn) [Example 272, 2-[(1-methylpyrrolidin-3-yloxy)phenyl-methyl]-1H-benzimidazole], which Ki or IC50 activity class [1] is on record?
A: < 1000 nM

Q: What about the melting point of the same compound?
A: 53 °C

Q: Which results are given for `CN1CCC(OC(c2cccc(SCc3ccccc3)c2)c2nc3ccccc3s2)CC1` (stereo not drawn) [Example 148, 2-[(3-benzylsulfanylphenyl)(1-methylpiperidin-4-yloxy)methyl]benzothiazole]?
A: Ki or IC50 activity class [1]: < 300 nM; melting point: 195 °C

Q: Which Ki or IC50 activity class [1] does the source give for `CN1CCC(OC(c2cccc(-c3ccccc3CO)c2)c2nc3ccccc3[nH]2)CC1` (stereo not drawn) [Example 123, {3′-[(1H-benzimidazol-2-yl)(1-methylpiperidin-4-yloxy)methyl]biphenyl-2-yl}methanol] here?
A: < 1000 nM

Q: And the melting point?
A: 107 °C

Q: Which Ki or IC50 activity class [1] does the source give for `CC(C)Oc1cccc(C(NC2CCN(C)CC2)c2nc3ccccc3[nH]2)c1` (stereo not drawn) [Example 77, [(1H-benzimidazol-2-yl)(3-isopropoxyphenyl)methyl](1-methylpiperidin-4-yl)amine] here?
A: < 300 nM

Q: What about the melting point of the same compound?
A: 75 °C

Q: For `CN1CCC(NC(c2cccc(OCCCC(F)(F)F)c2)c2nc3ccccc3[nH]2)CC1` (stereo not drawn) [Example 175, {(1H-benzimidazol-2-yl)[3-(4,4,4-trifluoro-butoxy)phenyl]methyl}(1-methylpiperidin-4-yl)amine], which Ki or IC50 activity class [1] is on record?
A: < 300 nM

Q: What about the melting point of the same compound?
A: 94 °C

Q: With `CN1CCC(OC(c2nc3ccccc3[nH]2)c2cc(OCC(F)(F)F)ccc2F)CC1` (stereo not drawn) [Example 522] as the compound, how does the Ki or IC50 activity class [1] read?
A: < 30 nM

Q: What about the melting point of the same compound?
A: 204 °C

Q: Which results are given for `CN1CCC(OC(c2nc3ccccc3[nH]2)c2cc(F)ccc2O)CC1` (stereo not drawn) [Example 572]?
A: Ki or IC50 activity class [1]: < 30 nM; melting point: 142 °C

Q: For `CSc1ccccc1-c1cccc(C(OC2CCN(C)CC2)c2nc3ccccc3[nH]2)c1` (stereo not drawn) [Example 114, 2-[(1-methylpiperidin-4-yloxy)(2′-methylsulfanylbiphenyl-3-yl)methyl]-1H-benzimidazole], which Ki or IC50 activity class [1] is on record?
A: < 300 nM

Q: And the melting point?
A: 163 °C

Q: What does the source list for `CN1CCC(OC(c2nc3ccccc3[nH]2)c2ccccc2Br)CC1` (stereo not drawn) [Example 262, 2-[(2-bromophenyl)(1-methylpiperidin-4-yloxy)methyl]-1H-benzimidazole]?
A: Ki or IC50 activity class [1]: < 300 nM; melting point: 213 °C

Q: With `CN1CCC(OC(c2cccc(Br)c2)c2nc3cc(F)c(F)c(F)c3[nH]2)CC1` (stereo not drawn) [Example 481, 2-[(3-bromophenyl)(1-methylpiperidin-4-yloxy)methyl]-5,6,7-trifluoro-1H-benzimidazole] as the compound, how does the Ki or IC50 activity class [1] read?
A: < 1000 nM

Q: What about the melting point of the same compound?
A: 140 °C

Q: Which results are given for `Cc1cccc(C(OC2CCN(C)CC2)c2nc3ccccc3[nH]2)c1O` (stereo not drawn) [Example 586]?
A: Ki or IC50 activity class [1]: < 30 nM; melting point: 111 °C

Q: Which results are given for `Cc1ccc(C(OC2CCN(C)CC2)c2nc3ccccc3[nH]2)cc1Cl` (stereo not drawn) [Example 552]?
A: Ki or IC50 activity class [1]: < 300 nM; melting point: 86 °C

Q: With `COc1cccc(C(NC2CCN(C)CC2)c2nc3ccccc3[nH]2)c1` (stereo not drawn) [Example 70, [(1H-benzimidazol-2-yl)(3-methoxyphenyl)methyl](1-methylpiperidin-4-yl)amine] as the compound, how does the Ki or IC50 activity class [1] read?
A: < 300 nM

Q: What about the melting point of the same compound?
A: 182 °C

Q: What does the source list for `COc1cc(F)c(O)c(C(OC2CCN(C)CC2)c2nc3ccccc3[nH]2)c1` (stereo not drawn) [Example 608]?
A: Ki or IC50 activity class [1]: < 300 nM; melting point: 132 °C

Q: What does the source list for `CN1CCC(OC(c2ccc(F)cc2)c2nc3ccccc3[nH]2)CC1` (stereo not drawn) [Example 179, 2-[(4-fluorophenyl)(1-methylpiperidin-4-yloxy)methyl]-1H-benzimidazole]?
A: Ki or IC50 activity class [1]: < 300 nM; melting point: 131 °C

Q: Which Ki or IC50 activity class [1] does the source give for `CSc1cccc(C(NC2CCN(C)CC2)c2nc3ccccc3[nH]2)c1` (stereo not drawn) [Example 75, [(1H-benzimidazol-2-yl)(3-methylsulfanylphenyl)methyl](1-methylpiperidin-4-yl)amine] here?
A: < 30 nM

Q: What about the melting point of the same compound?
A: 166 °C

Q: Which results are given for `CN1CCC(OC(c2nc3ccccc3s2)c2cccc3ccccc23)CC1` (stereo not drawn) [Example 17, 2-[(1-methylpiperidin-4-yloxy)naphthalen-1-ylmethyl]benzothiazole]?
A: Ki or IC50 activity class [1]: < 1000 nM; melting point: 106.5 °C

Q: With `CC(C)CCCOc1cccc(C(NC2CCN(C)CC2)c2nc3ccccc3[nH]2)c1` (stereo not drawn) [Example 146, {(1H-benzimidazol-2-yl)[3-(4-methylpentyloxy)phenyl]methyl}(1-methylpiperidin-4-yl)amine] as the compound, how does the Ki or IC50 activity class [1] read?
A: < 300 nM

Q: And the melting point?
A: 73 °C

Q: With `CN1CCC(NC(c2cccc(-c3ccccc3)c2)c2nc3ccccc3[nH]2)CC1` (stereo not drawn) [Example 94, [(1H-benzimidazol-2-yl)biphenyl-3-ylmethyl](1-methylpiperidin-4-yl)amine] as the compound, how does the Ki or IC50 activity class [1] read?
A: < 30 nM

Q: And the melting point?
A: 98 °C

Q: Which Ki or IC50 activity class [1] does the source give for `CN1CCC(NC(c2cccc(OCc3ccccc3)c2)c2nc3ccccc3[nH]2)CC1` (stereo not drawn) [Example 65, [(1H-benzimidazol-2-yl)(3-benzyloxyphenyl)methyl](1-methylpiperidin-4-yl)amine] here?
A: < 30 nM

Q: What about the melting point of the same compound?
A: 78 °C

Q: With `Cc1c(F)ccc(C(OC2CCN(C)CC2)c2nc3ccccc3[nH]2)c1O` (stereo not drawn) [Example 623] as the compound, how does the Ki or IC50 activity class [1] read?
A: < 30 nM

Q: And the melting point?
A: 97 °C

Q: For `CN1CCC(NC(c2cccc(C(F)(F)F)c2)c2nc3ccccc3[nH]2)CC1` (stereo not drawn) [Example 59, [(1H-benzimidazol-2-yl)(3-trifluoromethylphenyl)methyl](1-methylpiperidin-4-yl)amine], which Ki or IC50 activity class [1] is on record?
A: < 30 nM

Q: And the melting point?
A: 90 °C

Q: What does the source list for `CC(O)CSc1cccc(C(OC2CCN(C)CC2)c2nc3ccccc3[nH]2)c1` (stereo not drawn) [Example 247, 1-{3-[(1H-benzimidazol-2-yl)(1-methylpiperidin-4-yloxy)methyl]phenylsulfanyl}propan-2-ol]?
A: Ki or IC50 activity class [1]: < 300 nM; melting point: 120 to 122 °C

Q: Which Ki or IC50 activity class [1] does the source give for `CN1CCC(OC(c2cccc(-c3ccc(OC(F)(F)F)cc3)c2)c2nc3ccccc3[nH]2)CC1` (stereo not drawn) [Example 182, 2-[(1-methylpiperidin-4-yloxy)(4′-trifluoromethoxybiphenyl-3-yl)methyl]-1H-benzimidazole] here?
A: < 30 nM

Q: And the melting point?
A: 90 °C

Q: What does the source list for `CN1CCC(OC(c2cccc(-c3ccc4c(c3)OCO4)c2)c2nc3ccccc3[nH]2)CC1` (stereo not drawn) [Example 184, 2-[(3-benzo[1,3]dioxol-5-ylphenyl)(1-methylpiperidin-4-yloxy)methyl]-1H-benzimidazole]?
A: Ki or IC50 activity class [1]: < 300 nM; melting point: 95 °C

Q: What does the source list for `Cc1cccc(C(OC2CCN(C)CC2)c2nc3ccccc3[nH]2)c1` (stereo not drawn) [Example 164, 2-[(1-methylpiperidin-4-yloxy)(m-tolyl)methyl]-1H-benzimidazole]?
A: Ki or IC50 activity class [1]: < 300 nM; melting point: 119 °C

Q: For `Cc1cc(O)c(C(OC2CCN(C)CC2)c2nc3ccccc3[nH]2)cc1F` (stereo not drawn) [Example 613], which Ki or IC50 activity class [1] is on record?
A: < 30 nM

Q: And the melting point?
A: 102 °C

Q: Which Ki or IC50 activity class [1] does the source give for `Cc1ccc(C(OC2CCN(C)CC2)c2nc3ccccc3[nH]2)c(O)c1F` (stereo not drawn) [Example 601, 6-[(1H-benzimidazol-2-yl)(1-methylpiperidin-4-yloxy)methyl]-2-fluoro-3-methylphenol] here?
A: < 30 nM

Q: What about the melting point of the same compound?
A: 148 °C

Q: With `COc1ccc(-c2cccc(C(NC3CCN(C)CC3)c3nc4ccccc4[nH]3)c2)cc1` (stereo not drawn) [Example 222, [(1H-benzimidazol-2-yl)(4′-methoxy-biphenyl-3-yl)methyl](1-methylpiperidin-4-yl)amine] as the compound, how does the Ki or IC50 activity class [1] read?
A: < 300 nM

Q: And the melting point?
A: 110 °C

Q: Which Ki or IC50 activity class [1] does the source give for `CN1CCC(OC(c2cccc(SCC3=NCCN3)c2)c2nc3ccccc3[nH]2)CC1` (stereo not drawn) [Example 468, 2-[[3-(4,5-dihydro-1H-imidazol-2-ylmethylsulfanyl)phenyl](1-methylpiperidin-4-yloxy)methyl]-1H-benzimidazole] here?
A: < 300 nM

Q: What about the melting point of the same compound?
A: 62 °C

Q: What does the source list for `CN1CCC(OC(c2nc3ccccc3[nH]2)c2ccc(C(F)(F)F)cc2F)CC1` (stereo not drawn) [Example 540]?
A: Ki or IC50 activity class [1]: < 300 nM; melting point: 91 °C

Q: Which results are given for `Cc1ccc(C(OC2CCN(C)CC2)c2nc3ccccc3[nH]2)c(F)c1F` (stereo not drawn) [Example 551]?
A: Ki or IC50 activity class [1]: < 300 nM; melting point: 80 °C

Q: Which results are given for `Cc1cc(F)cc(C(NC2CCN(C)CC2)c2nc3ccccc3s2)c1` (stereo not drawn) [Example 44, [benzothiazol-2-yl(3-fluoro-5-methylphenyl)methyl](1-methylpiperidin-4-yl)amine]?
A: Ki or IC50 activity class [1]: < 1000 nM; melting point: 102 °C

Q: Which results are given for `CN1CCC(OC(c2nc3ccccc3[nH]2)c2cccc(-c3ccccc3)c2O)CC1` (stereo not drawn) [Example 615]?
A: Ki or IC50 activity class [1]: < 300 nM; melting point: 129 °C

Q: For `CN1CCC(OC(c2nc3ccccc3[nH]2)c2cc(Cl)cc(F)c2O)CC1` (stereo not drawn) [Example 599], which Ki or IC50 activity class [1] is on record?
A: < 300 nM

Q: And the melting point?
A: 146 °C

Q: Which results are given for `CN1CCC(OC(c2ccccc2)c2nc3cc(Cl)c(Cl)cc3[nH]2)CC1` (stereo not drawn) [Example 165, 5,6-dichloro-2-[(1-methylpiperidin-4-yloxy)phenylmethyl]-1H-benzimidazole]?
A: Ki or IC50 activity class [1]: < 300 nM; melting point: 221 °C

Q: With `CN1CCC(OC(c2nc3ccccc3[nH]2)c2cccc3cc[nH]c23)CC1` (stereo not drawn) [Example 577] as the compound, how does the Ki or IC50 activity class [1] read?
A: < 300 nM

Q: What about the melting point of the same compound?
A: 110 °C

Q: Which Ki or IC50 activity class [1] does the source give for `CCCc1ccc(O)c(C(OC2CCN(C)CC2)c2nc3ccccc3[nH]2)c1` (stereo not drawn) [Example 591] here?
A: < 300 nM

Q: What about the melting point of the same compound?
A: 120 °C

Q: For `CN1CCC(OC(c2cccc(OCCN)c2)c2nc3ccccc3s2)CC1` (stereo not drawn) [Example 271, 2-{3-[benzothiazol-2-yl(1-methylpiperidin-4-yloxy)methyl]phenoxy}ethylamine], which Ki or IC50 activity class [1] is on record?
A: < 30 nM

Q: What about the melting point of the same compound?
A: 76 °C

Q: What does the source list for `Cc1cc(F)cc(C(OC2CCN(C)CC2)c2nc3ccccc3[nH]2)c1O` (stereo not drawn) [Example 607]?
A: Ki or IC50 activity class [1]: < 1000 nM; melting point: 111 °C

Q: For `COc1ccc(F)c(C(OC2CCN(C)CC2)c2nc3ccccc3[nH]2)c1F` (stereo not drawn) [Example 534, 2-[(2,6-difluoro-3-methoxyphenyl)(1-methylpiperidin-4-yloxy)methyl]-1H-benzimidazole], which Ki or IC50 activity class [1] is on record?
A: < 300 nM

Q: And the melting point?
A: 185 °C
